Measured values as given in publication PMC12040169 (PLOS Biology, 2025).

assay: in vitro; settings: human, hela cells, % viability

| SMILES | viability at 28.5 h, 10 µM |
| --- | --- |
| CCOc1cc(C2CC(=O)NC(SCC(=O)Nc3cccc(C(F)(F)F)c3)=C2C#N)ccc1O (centres unmarked) [CBK265778] | 104% |
| O=C(O)CCCn1cc(NC(=O)c2cccc(F)c2)cn1 [CBK270051] | 91.4% |
| O=C(Nc1ccc(C(F)(F)F)cc1)C1=C(O)CN(c2ccc(Cl)cc2)C1=O [CBK017603] | 84.8% |
| O=[N+]([O-])c1cc2c(cc1C(Nc1ccccn1)c1cc(Cl)c3cccnc3c1O)OCO2 (centres unmarked) [CBK267795] | 83% |
| CCOc1ccccc1NC(=O)CNS(=O)(=O)c1ccccc1 [CBK265860] | 86.9% |
| O=C(O)c1[nH]c2ccccc2c1NS(=O)(=O)c1cc(Cl)sc1Cl [CBK049886] | 67.5% |
| Cc1ccc(NC(=O)CSc2nnc(COc3ccc(Cl)cc3Cl)o2)cc1Cl [CBK264113] | 90.9% |
| COc1ccc2c(c1)c1nc(C)sc1n2CCN1CCCCC1 [CBK269909C] | 93.3% |
| COc1cc2c(cc1OC)CN(C(=O)Cc1ccccc1)CC2 [CBK122751] | 90.7% |
| COC(=O)c1c(C)n(CCCNc2ccc([N+](=O)[O-])cc2Cl)c2ccc(O)cc12 [CBK268363] | 86.2% |
| O=C(O)CC1SC(Nc2ccc(F)cc2F)=NC1=O (centres unmarked) [CBK200115] | 99.3% |
| COc1ccc(Nc2nnc(-c3ccc(C(N)=O)cc3)c3ccccc23)cc1 [CBK264246] | 92.7% |
| O=C(O)Cn1nnnc1CN1CCc2ccccc2C1 [CBK287097] | 94.3% |
| Clc1cccc(CNc2cncc(-c3cccs3)n2)c1 [CBK065609] | 105% |
| Cc1nnc([C@H]2CCN(Cc3ccc(F)cc3)C2)o1 [CBK289391] | 88.4% |
| O=C1N[C@]2(CCc3ccccc31)CN(Cc1ccccc1)C[C@H]2CO [CBK284795] | 106% |
| CCC(C)NC(=O)Cn1c(C2CCOCC2)cc2cc(C)cnc21 (centres unmarked) [CBK284756] | 94.3% |
| COc1ccc(C(NC(=O)C2CC=CCC2C(=O)O)c2ccccc2)cc1 (centres unmarked) [CBK264264] | 91.6% |
| N=C1S/C(=C/c2ccc(-c3ccccc3C(=O)O)o2)C(=O)N1c1nccs1 [CBK077624] | 93.9% |
| CC(=O)Nc1cccc(NC(=O)CN(C)S(=O)(=O)c2ccc(F)cc2)c1 [CBK269951] | 90.2% |
| CC(Cn1cncn1)C(=O)N1CCC(CCc2ccccc2F)CC1 (centres unmarked) [CBK281529] | 96% |
| COc1cncc(C(NC(=O)c2ccc3[nH]nnc3c2)[C@H]2C[C@@H](O)C2)c1 (some centres unmarked) [CBK307049] | 108% |
| COc1cc(C(C)=O)ccc1OCCCCN1CCOCC1 [CBK269713C] | 98.2% |

| SMILES | viability at 28.5 h, 10 µM |
| --- | --- |
| O=C1c2ccccc2C(=O)N1c1ccccn1 [CBK113682] | 99.5% |
| CC(=O)Oc1ccc(C(=O)NCc2ccc3c(c2)OCO3)cc1 [CBK264372] | 91.2% |
| CCCn1nnc(NC(=O)C(C)Oc2ccc(Cl)cc2Cl)n1 (centres unmarked) [CBK266772] | 98.6% |
| O=C(NC(Cc1ccsc1)c1nccs1)C1CC2C=CC1O2 (centres unmarked) [CBK285096] | 91.9% |
| CC(=O)c1cccc(NC(=O)c2cccn(Cc3ccc(C)cc3)c2=O)c1 [CBK294427] | 114% |
| C=CCN1C(=O)CC2(C1=O)C(=O)N(C)c1ccc(Cl)cc12 (centres unmarked) [CBK075242] | 110% |
| CC(=O)NC(CC(=O)NCc1cccnc1-n1cncn1)c1ccc(Cl)cc1 (centres unmarked) [CBK298314] | 101% |
| CC(=O)c1cc(CCCO)n(Cc2ccco2)c1C [CBK022013] | 115% |
| Cc1cccc(OCCn2c(CCNC=O)nc3ccccc32)c1C [CBK269539] | 104% |
| O=C1CC[C@@H](NCc2ccccn2)[C@H](c2cc(F)cc(F)c2)N1 [CBK282911] | 98.8% |
| COc1cc2nnnn2c(-c2ccccc2)n1 [CBK026189] | 102% |
| COc1ccc(-c2ccc(CNCCCN3CCOCC3)o2)cc1Cl [CBK278312C] | 103% |
| COc1ccc(C(=O)NC(CC(=O)O)c2ccc(OC)cc2)cc1 (centres unmarked) [CBK266188] | 101% |
| CC(c1ccc(F)c(F)c1)N(C)C(=O)Cn1cnc2c(c1=O)CCC2 (centres unmarked) [CBK306291] | 88.6% |
| Cc1nn(-c2ccccc2)c2c1C(C(=O)c1ccc3c(c1)OCO3)CC(=O)N2 (centres unmarked) [CBK294436] | 86.1% |
| O=C(c1n[nH]c2ccccc12)N1CCc2ccccc21 [CBK200282] | 90.6% |
| Cc1cc(C)n(CC(C)NC(=O)c2cc(C(F)(F)F)nn2C)n1 (centres unmarked) [CBK281671] | 92.2% |
| CC(C)CCNC(=O)N(CCc1ccccc1)Cc1ccccc1 [CBK155351] | 90.8% |
| COCCn1cc(C(=O)N2CCN3CCCCC3C2)c2ccccc21 (centres unmarked) [CBK305287] | 107% |
| O=C(Cn1c(NCCO)nc2ccccc21)C12CC3CC(CC(C3)C1)C2 [CBK262129B] | 85.4% |
| CCCC(=O)N1CCC([C@@H]2C[C@H](C(F)F)n3nc(C)cc3N2)CC1 [CBK284724] | 97.6% |
| O=c1[nH]cc(-c2ccc(F)cc2)cc1CNCc1ccccc1F [CBK284696] | 86.1% |
| Cc1ccc(Cl)cc1N(CC(=O)O)S(=O)(=O)c1ccccc1 [CBK262424] | 93% |

| SMILES | viability at 28.5 h, 10 µM |
| --- | --- |
| CSc1nc(N/N=C/c2ccc(Cl)cc2)c2c3c(sc2n1)CN(C)CC3 [CBK262588] | 107% |
| Cc1cccn2c(=O)c(/C=C3\SC(=S)N(CCCC(=O)O)C3=O)c(N3CCC(C)CC3)nc12 [CBK264793] | 107% |
| Cc1cc2c(cc1S(=O)(=O)NCc1ccccc1)NC(=O)CO2 [CBK270159] | 85.2% |
| O=C1CC(c2ccc(C(=O)O)cc2)c2c(-c3ccc(Cl)cc3)n[nH]c2N1 (centres unmarked) [CBK286684] | 97% |
| Cn1nccc1C1CCN(Cc2ccc(Oc3cnccn3)cc2)CC1 [CBK306400] | 104% |
| CC(c1ccncn1)N(C)C(=O)NCc1cccc(CN(C)C)c1 (centres unmarked) [CBK307667] | 89.9% |
| O=C(c1cc(F)c(F)cc1F)N1CCC2(CCN(Cc3cc(=O)[nH]c(=O)[nH]3)C2)C1 (centres unmarked) [CBK132141] | 91.4% |
| Cc1nc(-c2n[nH]cc2-c2ccccc2F)sc1CCN [CBK281578] | 102% |
| CCOc1ccccc1C(=O)N1CCC(Cc2ccc(-c3ccccc3)cc2)(C(N)=O)CC1 [CBK285775] | 97% |
| COc1ccc(CNC(=O)CCn2c(=O)oc3ccccc32)cc1 [CBK270138] | 92.7% |
| O=C(CSc1nnc(-c2ccccn2)[nH]1)NC1CC2CCC1C2 (centres unmarked) [CBK269994] | 83% |
| CCc1nc2ccc(C(=O)N(C)CCN(C)C)cn2c1N(CC)C(=O)NCCc1ccccc1 [CBK147036] | 96.4% |
| Cc1cccc(CN(CC(C)(C)CN)C(=O)Nc2ccccc2C(F)(F)F)n1 [CBK002409C] | 105% |
| CNC(=O)C1(Cc2ccc(-c3ccccc3)cc2)CCN(C(=O)c2ccccc2)CC1 [CBK285761] | 96.5% |
| CS(=O)(=O)Nc1ccc2cc(-c3ccc(Oc4ccccc4)cc3)cnc2n1 [CBK085674] | 98% |
| CS(=O)(=O)Nc1ccc(-c2cccc(C(F)(F)F)c2)c2ccccc12 [CBK083746] | 95.4% |
| CC(C)n1c(=O)[nH]c2ccncc2c1=O [CBK015763] | 88.8% |
| Cc1ccccc1CSCC(=O)N1CCN(c2ccccc2)CC1 [CBK058577] | 89% |
| CCOC(=O)CSc1nnc(-c2ccc(Cl)cc2)o1 [CBK068845] | 105% |
| CC(=O)c1ccc(-c2nc(NC(=O)c3cccc([N+](=O)[O-])c3)cnc2-c2ccc(F)c(Cl)c2)s1 [CBK036816] | 97.2% |
| COc1nc(-c2ccc(N(C)C)nc2)nn1C [CBK307317] | 100% |
| Cc1ccc(CN2CC[C@H]3[C@@H](C2)[C@H](c2ccsc2)CN3C(=O)c2ccc(F)cc2)cc1 [CBK285637] | 98.1% |
| N#Cc1c(F)cccc1N1CCCC(C(=O)Nc2nncs2)C1 (centres unmarked) [CBK306335] | 96.8% |

| SMILES | viability at 28.5 h, 10 µM |
| --- | --- |
| CCNS(=O)(=O)c1ccc(NS(=O)(=O)Cc2ccccc2)cc1 [CBK268257] | 100% |
| C[C@@H](Nc1cncc(-c2ccccc2CO)n1)c1ccccc1 [CBK065543] | 106% |
| Cc1ccc2c(CC(=O)N3CCC(C(=O)O)CC3)coc2c1 [CBK286711] | 79.9% |
| O=C(Cc1c(Cl)cccc1Cl)Nc1ccc2[nH]ccc2c1 [CBK159664] | 113% |
| CC(C)(C(=O)N1CCC(C(=O)NCCc2c[nH]c3ccccc23)C1)c1ccc(F)cc1 (centres unmarked) [CBK286034] | 102% |
| O=C(C1CCOCC1)N1CCCC(c2cc3cccnc3[nH]2)C1 (centres unmarked) [CBK284941] | 109% |
| Cc1ccc(-c2csc3nc(SCC(=O)NCC4CCCO4)n(-c4ccccc4)c(=O)c23)cc1 (centres unmarked) [CBK265610] | 82.6% |
| COCCn1ccnc1C1CCN(C(=O)C(O)c2cccc(Cl)c2)CC1 (centres unmarked) [CBK306901] | 99.8% |
| O=C(CSc1ncccn1)Nc1cccc(Cl)c1 [CBK058217] | 87.6% |
| COc1ccc(OC)c(CN2CCCN(C)CC2)c1 [CBK261554] | 96.1% |
| CCN1CCN(c2ccc([N+](=O)[O-])cc2S(=O)(=O)N2CCOCC2)CC1 [CBK264410] | 113% |
| O=C(Nc1cccnc1)c1cc(S(=O)(=O)N2CCOCC2)ccc1Br [CBK270101] | 92.4% |
| COc1ccc(CCNC(=O)c2ncoc2-c2cccs2)cc1 [CBK283663] | 103% |
| C=CCc1cccc(Cl)c1OCCN1CCNCC1 [CBK266071G] | 105% |
| COc1ccc(NC2c3cccc4cccc(c34)C2NS(=O)(=O)c2ccccc2)cc1 (centres unmarked) [CBK264075] | 97.4% |
| Cc1cc(C)n(-c2ccc(N3CCC4(CC3)OCCO4)nn2)n1 [CBK305255] | 97.8% |
| Cc1nccn1CC1CCCN(Cc2nc3ccccc3[nH]2)C1 (centres unmarked) [CBK281619] | 83.3% |
| CCn1c2cc(C)sc2c2cnn(CC(=O)N(C)C)c(=O)c21 [CBK284173] | 85% |
| Cc1ccc(Cc2cnc(NC(=O)C3CCOCC3)s2)cc1F [CBK306130] | 77.5% |
| COc1cc2c(cc1OC)C(C)N(C(=O)Nc1ccc3c(c1)OCCO3)CC2 (centres unmarked) [CBK086204] | 94.8% |
